Measured values published in US20150266850A1 (E.I.DU PONT DE NEMOURS AND COMPANY, priority 2012, published 2015).
Marks after values point to notes of the source that are not given here.

What was measured:
Format in all cases: in vivo
Conditions in all cases: 100 = 100% disease control
Septoria tritici = assay: Test C: wheat leaf blotch, preventive spray on wheat seedlings, visual disease rating
Procedure, shortened: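 Preventive run-off spray on seedlings at 200 ppm (equal to 800 g/ha), some at 40 or 50 ppm, in acetone/water 50/50 plus 250 ppm Trem® 014. Spore inoculation one day later; 24° C. saturated for 48 h, 20° C. chamber 19 days. Disease scored visually as % control relative to controls.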

Botrytis cinerea = assay: Test E: tomato botrytis, preventive spray on tomato seedlings, visual disease rating
From the text: General protocol for preparing test suspensions for Tests A-E: the test compounds were first dissolved in acetone in an amount equal to 11% of the final volume and then suspended at the desired concentration (in ppm) in acetone and purified water (50/50 mix by volume) containing 250 ppm of the surfactant Trem® 014 (polyhydric alcohol esters). The resulting test suspensions were then used in Tests A-E. Spraying a 200 ppm test suspension to the point of run-off on the test plants was the equivalent of a rate of 800 g/ha.
The test suspension was sprayed to the point of run-off on tomato seedlings. The following day the seedlings were inoculated with a spore suspension of Botrytis cinerea (the causal agent of tomato botrytis) and incubated in saturated atmosphere at 20° C. for 48 h, and then moved to a growth chamber at 27° C. for 3 additional days, after which time disease ratings were visually made.
Results for Tests A-E are given in Table A. In the Table, a rating of 100 indicates 100% disease control and a rating of 0 indicates no disease control (relative to the controls). A dash (-) indicates no test results. All results are for 200 ppm except where followed by an “*”, which indicates 40 ppm or “**”, which indicates 50 ppm.

Septoria nodorum = assay: Test D: wheat glume blotch, preventive spray on wheat seedlings, visual disease rating
Procedure, shortened: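 Disease control (0 = none, 100 = full, relative to controls) was scored visually on wheat seedlings 7 days after a 48 h saturated-humidity incubation at 20° C following Septoria nodorum inoculation. Inoculation came one day after a run-off spray at 200 ppm (some 40 or 50 ppm) in acetone/water plus surfactant.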

[1] = system: Puccinia recondita f sp. tritici; assay: Test B: wheat leaf rust, preventive spray on wheat seedlings, visual disease rating
Procedure, shortened: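 Preventive spray to run-off on seedlings, one day before spore inoculation; 24 h in saturated atmosphere at 20° C, then 7 days in a 20° C growth chamber before visual rating (100 = full control, 0 = none, relative to controls). Standard rate 200 ppm, equal to 800 g/ha, some at 40 or 50 ppm; compounds in acetone/water with 250 ppm surfactant.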

[2] = system: Erysiphe graminis f. sp. tritici; assay: Test A: wheat powdery mildew, preventive spray on wheat seedlings, visual disease rating
Procedure, shortened: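 Preventive test: seedlings inoculated with Erysiphe spores one day after run-off spraying at 200 ppm (or 40/50 ppm) in acetone/water plus surfactant. Kept 8 days at 20° C; visual rating as % disease control versus untreated (100 = full control).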

[3] = Zymoseptoria tritici, 504 h, 200 ppm
[4] = Botrytis cinerea, 120 h, 200 ppm
[5] = Parastagonospora nodorum, 216 h, 200 ppm
[6] = Blumeria graminis, 192 h, 200 ppm

SMILES	Test C disease control rating (Septoria tritici; 40 ppm (*))	Test E disease control rating (Botrytis cinerea; 40 ppm (*))	Test D disease control rating (Septoria nodorum; 40 ppm (*))	Test B disease control rating ([1]; 40 ppm (*))	Test A disease control rating ([2]; 40 ppm (*))	further results
COC(=O)NCc1cc(-c2ccn(-c3ccc(Br)cc3Br)n2)ccc1C [Cmpd 62]	97* %	100* %	100* %	100* %	100* %	–
COC(=O)NCc1cc(-c2ccn(-c3ccc(Cl)cc3Br)n2)ccc1C [Cmpd 63]	96* %	99* %	100* %	100* %	100* %	–
COC(=O)NCc1cc(-c2ccn(-c3ccc(F)cc3F)n2)ccc1C [Cmpd 64]	97* %	74* %	100* %	100* %	100* %	–
COC(=O)NCc1cc(-c2ccn(-c3ccc(Cl)cc3F)n2)ccc1C [Cmpd 65]	98* %	94* %	100* %	100* %	100* %	–
COC(=O)NCc1cc(-n2ncc(-c3ccc(F)cc3F)n2)ccc1C [Cmpd 67]	98* %	33* %	100* %	100* %	100* %	–
COC(=O)NCc1cc(-n2ncc(-c3ccc(OC)cc3Cl)n2)ccc1C [Cmpd 68]	99* %	77* %	100* %	100* %	100* %	–
COC(=O)NCc1cc(-n2ccc(-c3ccc(C#N)cc3C)n2)ccc1C [Cmpd 69]	66* %	0* %	100* %	100* %	100* %	–
COC(=O)NCc1cc(-n2ccc(-c3ccc(Cl)cc3O)n2)ccc1C [Cmpd 71]	–	–	–	–	–	Test C disease control rating (Septoria tritici; 200 ppm): 51%; Test E disease control rating (Botrytis cinerea; 200 ppm): 8%; Test D disease control rating (Septoria nodorum; 200 ppm): 100%; Test B disease control rating ([1]; 200 ppm): 99%; Test A disease control rating ([2]; 200 ppm): 90%
COC(=O)NCc1cc(-n2ccc(-c3ccc(Cl)cc3OCC#N)n2)ccc1C [Cmpd 72]	90* %	0* %	100* %	100* %	93* %	–
CCOc1ccc(-c2ccn(-c3ccc(C)c(CNC(=O)OC)c3)n2)c(Cl)c1 [Cmpd 76]	99* %	0* %	100* %	100* %	100* %	–
CCOc1cc(Cl)ccc1-c1ccn(-c2ccc(C)c(CNC(=O)OC)c2)n1 [Cmpd 77]	99* %	0* %	100* %	100* %	100* %	–
COC(=O)NCc1cc(-n2ccc(-c3ccc(Cl)cc3Br)n2)ccc1C [Cmpd 80]	58* %	81* %	100* %	100* %	97* %	–
COC(=O)NCc1cc(-n2ncc(-c3ccc(Cl)cc3Cl)n2)ccc1C [Cmpd 86]	93* %	54* %	100* %	100* %	99* %	–
COC(=O)NCc1cc(-n2ncc(-c3ccc(F)cc3Cl)n2)ccc1C [Cmpd 87]	88* %	61* %	100* %	100* %	98* %	–
COC(=O)NCc1cc(-c2ccn(-c3ccc(N)cc3Cl)n2)ccc1C [Cmpd 90]	–	–	–	–	–	Test C disease control rating (Septoria tritici; 200 ppm): 100%; Test E disease control rating (Botrytis cinerea; 200 ppm): 97%; Test D disease control rating (Septoria nodorum; 200 ppm): 100%; Test B disease control rating ([1]; 200 ppm): 98%; Test A disease control rating ([2]; 200 ppm): 0%
COC(=O)NCc1cc(-n2ccc(-c3ccc(OC)cc3O)n2)ccc1C [Cmpd 103]	–	–	–	–	–	Test C disease control rating (Septoria tritici; 200 ppm): 74%; Test E disease control rating (Botrytis cinerea; 200 ppm): 0%; Test D disease control rating (Septoria nodorum; 200 ppm): 100%; Test B disease control rating ([1]; 200 ppm): 100%; Test A disease control rating ([2]; 200 ppm): 48%
COC(=O)NCc1cc(-n2ncc(-c3ccc(OC)cc3C(F)(F)F)n2)ccc1C [Cmpd 104]	91* %	0* %	100* %	100* %	98* %	–
C#CCOc1cc(Cl)ccc1-c1ccn(-c2ccc(C)c(CNC(=O)OC)c2)n1 [Cmpd 108]	–	–	–	–	–	Test C disease control rating (Septoria tritici; 200 ppm): 95%; Test E disease control rating (Botrytis cinerea; 200 ppm): 8%; Test D disease control rating (Septoria nodorum; 200 ppm): 100%; Test B disease control rating ([1]; 200 ppm): 100%; Test A disease control rating ([2]; 200 ppm): 99%
COC(=O)NCc1cc(-n2ccc(-c3ccc(Br)cc3Br)n2)ccc1C [Cmpd 109]	92* %	0* %	100* %	100* %	99* %	–
COC(=O)NCc1cc(-n2ccc(-c3ccc([N+](=O)[O-])cc3Cl)n2)ccc1C [Cmpd 110]	93* %	0* %	100* %	100* %	72* %	–
COC(=O)NCc1cc(-c2ccn(-c3ccc(Br)cc3C#N)n2)ccc1C [Cmpd 111]	–	–	–	–	–	Test C disease control rating (Septoria tritici; 200 ppm): 93%; Test E disease control rating (Botrytis cinerea; 200 ppm): 0%; Test D disease control rating (Septoria nodorum; 200 ppm): 100%; Test B disease control rating ([1]; 200 ppm): 100%; Test A disease control rating ([2]; 200 ppm): 94%
COC(=O)NCc1cc(-n2ncc(-c3ccc(OC)cc3OC)[n+]2[O-])ccc1C [Compound 4]	–	–	–	–	–	pest or weed control at 200 ppm (Septoria tritici; [3]): 99%; pest or weed control at 200 ppm (Botrytis cinerea; [4]): 69%; pest or weed control at 200 ppm (Septoria nodorum; [5]): 100%; pest or weed control at 200 ppm ([1]; 192 h, 200 ppm): 100%; pest or weed control at 200 ppm [2, 6]: 99%
COC(=O)NCc1cc(-n2ncc(-c3ccc(OC)cc3C)n2)ccc1C [Compound 8, methyl N-[[5-[4-(4-methoxy-2-methylphenyl)-2H-1,2,3-triazol-2-yl]-2-methylphenyl]methyl]carbamate]	–	–	–	–	–	pest or weed control at 200 ppm (Septoria tritici; [3]): 100%; pest or weed control at 200 ppm (Botrytis cinerea; [4]): 90%; pest or weed control at 200 ppm (Septoria nodorum; [5]): 100%; pest or weed control at 200 ppm ([1]; 192 h, 200 ppm): 100%; pest or weed control at 200 ppm [2, 6]: 100%
COC(=O)NCc1cc(-c2ccn(-c3ccc(OC)cc3Cl)n2)ccc1C [Compound 20, methyl N-[[5-[1-(2-chloro-4-methoxyphenyl)-1H-pyrazol-3-yl]-2-methylphenyl]-methyl]carbamate]	–	–	–	–	–	pest or weed control at 200 ppm (Septoria tritici; [3]): 100%; pest or weed control at 200 ppm (Botrytis cinerea; [4]): 0%; pest or weed control at 200 ppm (Septoria nodorum; [5]): 100%; pest or weed control at 200 ppm ([1]; 192 h, 200 ppm): 100%; pest or weed control at 200 ppm [2, 6]: 100%
COC(=O)NCc1cc(-c2ccn(-c3ccc(Cl)cc3OC)n2)ccc1C [Compound 28, methyl N-[[5-[1-(4-chloro-2-methoxyphenyl)-1H-pyrazol-3-yl]-2-methylphenyl]-methyl]carbamate]	–	–	–	–	–	pest or weed control at 200 ppm (Septoria tritici; [3]): 100%; pest or weed control at 200 ppm (Botrytis cinerea; [4]): 57%; pest or weed control at 200 ppm (Septoria nodorum; [5]): 100%; pest or weed control at 200 ppm ([1]; 192 h, 200 ppm): 100%; pest or weed control at 200 ppm [2, 6]: 100%
COC(=O)NCc1cc(-n2ccc(-c3ccc(C)cc3C)n2)ccc1C [Compound 38, methyl N-[[5-[3-(2,4-dimethylphenyl)-1H-pyrazol-1-yl]-2-methylphenyl]-methyl]carbamate]	–	–	–	–	–	pest or weed control at 40 ppm (Septoria tritici; Zymoseptoria tritici, 504 h, 40 ppm (*)): 100%; pest or weed control at 40 ppm (Botrytis cinerea; Botrytis cinerea, 120 h, 40 ppm (*)): 98%; pest or weed control at 40 ppm (Septoria nodorum; Parastagonospora nodorum, 216 h, 40 ppm (*)): 100%; pest or weed control at 40 ppm ([1]; 192 h, 40 ppm (*)): 100%; pest or weed control at 40 ppm ([2]; Blumeria graminis, 192 h, 40 ppm (*)): 100%
